Results reported in the METLIN SMRT retention time set (Domingo-Almenara et al. 2019).

Test: gradient 5% acetonitrile 3 min, to 50% in 2 min, to 85% in 15 min, held 3 min, 100 µL/min
Details: column: Zorbax Extend-C18 2.1 x 50 mm; eluents: water / acetonitrile, 0.1% formic acid
In short: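 Retention time was recorded from adduct peaks, which were picked computationally and each inspected manually. Pure standards ran in mixtures of ~100 molecules on HPLC coupled to a quadrupole time-of-flight mass spectrometer, in positive and negative ionization mode, through a Zorbax Extend-C18 column (2.1 × 50 mm, 1.8 μm) at 100 μL/min. Eluents were water and acetonitrile, each with 0.1% formic acid.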

Row | SMILES | RP-LC retention time
1 | O=C(CN1CCN(Cc2ccccc2)C1=O)NC1CC1 | 641 s
2 | COc1ccc(-c2cc(=O)n3c4ccccc4n(CC(=O)NC(C)C)c3n2)cc1 | 853 s
3 | CCOC(=O)/C(C#N)=C\c1c[nH]c2ccccc12 | 649 s
4 | Cc1ccc(NC(=O)NC2CCN(c3cc(C)cc(C)c3)C2=O)cc1 (stereo unspecified) | 607 s
5 | CN(C)C(=O)c1cc2c(s1)CCC(C(=O)N1CCN(c3ccccn3)CC1)C2 (stereo unspecified) | 570 s
6 | O=C(Cc1nnc(-c2cnccn2)o1)Nc1ccc(C(F)(F)F)cc1 | 766 s
7 | CCc1nc2cc(-c3noc(-c4cccnc4)n3)ccc2o1 | 912 s
8 | CC(C)c1nnc2n1CCN(C(=O)c1nn(C)c3ccccc13)C2 | 647 s
9 | COCCN1C(=O)CC[C@]2(C(=O)NCc3ccc(OC)cc3OC)CCCC[C@@H]12 | 698 s
10 | CCOC(=O)c1nc(NCCc2ccc(OCC)c(OCC)c2)c2ccccc2n1 | 801 s
11 | O=S(=O)(CCc1noc(-c2cc(F)cc(F)c2)n1)c1ccccc1 | 939 s
12 | Cc1ccc(CNC(=O)Nc2ccc(-c3nc(-c4ccccc4)co3)cc2)cc1 | 1100 s
13 | O=S(=O)(c1ccc2c(c1)CCCC2)N1CCN(Cc2nnnn2-c2ccccc2)CC1 | 991 s
14 | CCn1nc(N2CCCC(NS(=O)(=O)c3ccc(F)c(Cl)c3)C2)ccc1=O (stereo unspecified) | 817 s
15 | O=C(Cc1cccc(F)c1)NCC(=O)Nc1nc2ccccc2[nH]1 | 623 s
16 | Nc1nc2ccc([N+](=O)[O-])cc2[nH]1 | 610 s
17 | COC(=O)c1ccc(C2Nc3ccc(OC)cc3[C@H]3OCCC[C@@H]23)cc1 (stereo partly specified) | 1020 s
18 | O=C(Nc1ccc2c(c1)OCO2)C1CCN(C(=O)c2ccccc2F)CC1 | 741 s
19 | COc1ccc(F)cc1-c1cc(NC(=O)[C@@H]2CCCNC2)ncc1Cl | 737 s
20 | COc1ccc(C(=O)Nc2sc3ccccc3c(=O)c2-c2cccs2)cc1OC | 951 s
21 | N#Cc1ccc(C(=O)Nc2cnc(N3CCCCC3)nc2)cc1 | 862 s
22 | Cc1sc(NC(=O)c2ccccc2Br)nc1-c1ccccc1 | 1090 s
23 | O=C(NCCc1c[nH]c2ccccc12)c1cccc(N2C(=O)CCS2(=O)=O)c1 | 749 s

Row | SMILES | RP-LC retention time
24 | Cc1c(-c2nn3c(Cc4ccccc4)nnc3s2)nnn1-c1ccccc1 | 939 s
25 | CC(=O)N1CCc2sc(S(=O)(=O)N3CCN(c4ccccc4C)CC3)cc2C1 | 995 s
26 | CCOC(=O)N1CCN(C(=O)C2CCCN(c3ccc(-c4ccco4)nn3)C2)CC1 (stereo unspecified) | 606 s
27 | Cc1ccc(-c2noc(Cc3nc(-c4ccc5c(c4)OCO5)cs3)n2)cc1 | 1220 s
28 | O=C(Cc1ccc(Cl)cc1)NCCOc1ccccc1 | 844 s
29 | Cc1nc(-c2cc3cccc(C)c3nc2N2CCN(c3ccc(F)cc3)CC2)no1 | 732 s
30 | COc1cccc2cc(C(=O)Nc3ccc4c(c3)C(=O)Nc3ccccc3O4)oc12 | 950 s
31 | CCOC(=O)C1=CN(C)S(=O)(=O)N=C1C | 695 s
32 | CC(C)N(CC#CCNC(=O)Cc1ccccc1Cl)C(C)C | 566 s
33 | CC1(C)CC2CC(C)(CN2c2nc(-c3ccc([N+](=O)[O-])cc3)nc3ccccc23)C1 (stereo unspecified) | 1050 s
34 | Nc1nc(N2CCC3(CC2)OCCO3)ncc1S(=O)(=O)c1ccc(Cl)cc1 | 896 s
35 | Cc1cc(C)cc(N2CCC(NC(=O)CC(C)C)C2=O)c1 (stereo unspecified) | 814 s
36 | COc1cc(NC(=O)N2CCN(c3cc(-c4cccc(OC)c4)ncn3)CC2)cc(OC)c1 | 620 s
37 | C=CCn1c(SCC(=O)NCC2CCCO2)nc2scc(-c3ccc(C)o3)c2c1=O (stereo unspecified) | 895 s
38 | CC(C)c1ccccc1OCC(=O)Nc1cnn(C)c(=O)c1N1CCOCC1 | 955 s
39 | O=C(Nc1ccccc1F)N1CCN(c2cc(-c3ccncc3)[nH]n2)CC1 | 553 s
40 | Cc1ccc(-c2noc(-c3ccccc3S(=O)(=O)N3CCN(c4ccccn4)CC3)n2)cc1 | 862 s
41 | O=C(NC1CCCCC1)N1CCC(c2noc(COCC3CC3)n2)CC1 | 830 s
42 | CC(C)c1nnc2ccc(NC(=O)Nc3ccccc3)cn12 | 712 s
43 | O=C(CCCn1c(=O)c2cccn2c2ccccc21)NCCCN1CCC(N2CCCCC2)CC1 | 584 s
44 | CCn1c(=O)c(C)nc2cc(-c3noc(-c4cccc(N(C)C)c4)n3)ccc21 | 1170 s
45 | CCc1noc(NC(C)=O)c1-c1ccc(C)c(S(=O)(=O)NCc2cccs2)c1 | 783 s
46 | CCc1ccc(-n2c(CN3CCN(C(=O)NC(C)(C)C)CC3)nc3cccnc32)cc1 | 687 s

Row | SMILES | RP-LC retention time
47 | Cc1cncn(CC(=O)N2CCN(S(C)(=O)=O)CC2)c1=O | 528 s
48 | Cc1ccc(S(=O)(=O)N(C)C)cc1-c1nnc(-c2ccc(F)cc2)o1 | 976 s
49 | CCN1CCCn2cc(S(=O)(=O)NCc3ccc(C)cc3)cc2C1=O | 778 s
50 | Cc1noc(C2(NC(=O)C3CCC3)CCCCC2)n1 | 745 s
51 | CCNC(=O)CCc1cc2cc(C)ccc2[nH]c1=O | 638 s
52 | Cc1cc(C)c(S(=O)(=O)Nc2cccc(-c3cn4ccccc4n3)c2)c(C)c1 | 667 s
53 | CCC(C)NC(=O)c1ccc2c(c1)CCN2C(C)=O (stereo unspecified) | 668 s
54 | CCSc1nnc(-c2nn(C)c3c2CN(S(=O)(=O)c2cc(F)ccc2C)CC3)n1CC | 988 s
55 | CCn1cc(C(=O)NCc2ccccc2C(F)(F)F)c2cccnc21 | 863 s
56 | CN(C)c1cccc(C(=O)NCC(=O)Nc2nc3ccccc3[nH]2)c1 | 594 s
57 | CCc1nc(-c2csc(S(=O)(=O)N3CCC(C(=O)NCc4ccccn4)CC3)c2)no1 | 654 s
58 | COc1ccc(NS(=O)(=O)c2cc(-c3[nH]ncc3C(=O)N3CCCC3)oc2C)cc1F | 701 s
59 | Cc1nn(-c2ccccc2)c(C)c1CCC(=O)NCCN(C)C | 590 s
60 | CCn1cc2nc(SCc3cc(F)cc(F)c3)n(Cc3ccccc3F)c(=O)c2n1 | 1150 s
61 | O=C(NCc1ccccc1)C1CC(=O)N(c2n[nH]c3cccc(F)c23)C1 (stereo unspecified) | 684 s
62 | O=C(NC1CCCCC1N1C(=O)CSC1=O)c1cc(Cl)ccc1Cl (stereo unspecified) | 810 s
63 | O=C(c1ccoc1)N1CCC(Oc2nccnc2N2CCc3ccccc32)C1 (stereo unspecified) | 880 s
64 | Cc1nnc(-c2nnc(N3CCN(c4ccccn4)CC3)c3ccccc23)o1 | 611 s
65 | CCCC(=O)Nc1cc2c(cc1SC(C)C)n(C)c(=O)n2C | 852 s
66 | CCc1nc(OCC(=O)N(CC)c2ccccc2)c2ccccc2n1 | 798 s
67 | CCOC(=O)COc1cc(-c2ccc(F)cc2)nc2ccc(NC(=O)COC)cc12 | 730 s
68 | COc1cc(NC(=O)CN2CCc3[nH]c4c(C)ccc(F)c4c(=O)c3C2)cc(OC)c1 | 604 s
69 | CCc1nn2c(CNS(=O)(=O)c3ccccc3CC)c(-c3ccccc3)nc2s1 | 1020 s

Row | SMILES | RP-LC retention time
70 | CN1[C@@H]2CC[C@H]1CC(OC(=O)C(CO)c1ccccc1)C2 (stereo partly specified) | 613 s
71 | O=C1CN(C(=O)c2cnccn2)c2ccccc2N1 | 569 s
72 | CC(C)Oc1ccc(CNC(=O)C2CCN(S(=O)(=O)c3cn(C(C)C)cn3)CC2)cc1 | 802 s
73 | CCN(CC)S(=O)(=O)c1ccc2c(c1)N(CC(=O)N1CCCC1)C(=O)C1CCCCN21 (stereo unspecified) | 835 s
74 | O=C(NCC(=O)N1CCCc2ccccc21)C1CCN(S(=O)(=O)c2ccc(Cl)cc2)CC1 | 914 s
75 | CCN1C(=O)C(CC(=O)NCCOC)Sc2ncccc21 (stereo unspecified) | 593 s
76 | Cc1cccc(CNC(=O)CCC(=O)N2CCSc3nc(C)cc(C)c32)c1 | 692 s
77 | O=C(Nc1ccc(F)cc1)C(=O)c1c[nH]c2ccccc12 | 918 s
78 | COc1cccc(-c2nc3cnccn3c2NCCC(=O)NC2CCCCC2)c1 | 710 s
79 | COC(=O)Cn1c(COc2ccccc2)nc2ccccc21 | 706 s
80 | Cn1nc(C(=O)Nc2ccc(F)cc2)c2c1-c1cc(Cl)ccc1SC2 | 1280 s
81 | COc1cc(OC)cc(-c2noc(Cn3nc(-c4ccc(C)cc4)ccc3=O)n2)c1 | 1090 s
82 | Cn1ncc2c(N3CCCCC3)nc(C(=O)N3CCN(c4ccc(F)cc4)CC3)nc21 | 894 s
83 | CC(C)C(NC(=O)c1ccco1)c1nc(-c2ccc3c(c2)ncn3C2CCCC2)no1 (stereo unspecified) | 741 s
84 | CC(C)N1CCn2cc(S(=O)(=O)Nc3ccc(F)cc3)cc2C1=O | 757 s
85 | Cc1cccc(OCc2nc(-c3cccc(-c4ccnn4C)c3)no2)c1 | 824 s
86 | O=C(Nc1nc(-c2ccccc2Cl)cs1)c1cccnc1 | 858 s
87 | CSc1ccccc1NC(=O)c1ccc(-n2cccn2)nn1 | 609 s
88 | Cc1cccc(C)c1NC(=O)N1CC(n2cnnc2-c2ccccc2)C1 | 715 s
89 | COCCN1C(=O)c2ccccc2C(C(=O)NCCCN2CC(C)CC(C)C2)C1c1cccs1 (stereo unspecified) | 670 s
90 | COc1cccc(-c2noc(C3CC(=O)N(c4cccc(Cl)c4)C3)n2)c1OC (stereo unspecified) | 936 s
91 | COC(=O)c1ccc2c(=O)n(CCc3ccccc3)c(N3CCN(c4ccccn4)CC3)nc2c1 | 756 s
